Results as given in patent publication EP1330253B1, “USE OF BIOACTIVE FRACTION FROM COW URINE DISTILLATE ('GO MUTRA') AS A BIO-ENHANCER OF ANTI-INFECTIVE, ANTI-CANCER AGENTS AND NUTRIENTS” (Council of Scientific and Industrial Research, priority 2000, dated 2002).
Read-outs that look alike come from different tables or passages of the source. One block for each molecule: values may come before it.

Experiments:
[1] = Bioenhancement of antifungal agent, minimum inhibitory concentration; assay type: cell-based; conditions: active fraction Gm-IV kept at 10 µg/ml in the combination
[2] = test system: oxyR mutant of bacterium Escherichia coli; assay type: cell-based; conditions: for Fold enhancement in isoniazid/H2O2 activity: cow urine distillate 0.001 µl/ml
Experimental: For this, the cells are treated with compound for 4 to 8 hours and then washed free of it by centrifugation and washing in sterile water. This was followed by treatment with antibiotic as in steps b to d.

[3] = for OD measured as Absorbance (specific to the compound maxima) across the membrane in receiving tube after 1 hr / OD measured as Absorbance (specific to the compound maxima) across the membrane in receiving tube after 2 hr / OD measured as Absorbance (specific to the compound maxima) across the membrane in receiving tube after 3 hr / OD measured as Absorbance (specific to the compound maxima) across the membrane in receiving tube after 4hr / OD measured as Absorbance (specific to the compound maxima) across the membrane in receiving tube after 5 hr / OD measured as Absorbance (specific to the compound maxima) across the membrane in receiving tube after 6 hr: Rifampicin 1mg/ml, fraction Gm-IV 1.0µg/ml
[4] = test system: Bacillus subtilis; assay: Bio-enhancement of anti-infective agents, broth assay with viable cell count; assay type: cell-based; conditions: for Fold enhancement in antibiotic activity: cow urine distillate 1 µl/ml
Experimental: (§1) • a) The minimum inhibitory concentration (MIC) of antibiotic is determined against Escherichia coli (equivalent of ATCC 10536), Bacillus subtilis (equivalent of ATCC 6015) and Mycobacterium smegmatis (equivalent of ATCC 10231) in broth and disc diffusion assay. • b) The antibiotics agents at concentrations 1/4, 1/3, 1/2 and equal to MIC are added alone and in combination with the test compound at varying concentrations on disc and in broth to evaluate the comparative inhibition. • c) These combination showing significant advantage or higher activity than antibiotic alone in terms of enhanced inhibition of bacterial growth (large inhibition zone in disc diffusion and affectivity of lower concentration in broth assay) are picked up for future testing. • d) In broth assay the activity is quantified by counting number of viable cells in a given treatment and converted in fold enhancement by combination compared to antibiotic / drug alone in the killing percentage of cells. • e) The pre-treatment assay followed to determine whether the compound is required along with antibiotic to enhance its activity or even its withdrawal after treatment or prior to antibiotic treatment would benefit. For this, the cells are treated with compound for 4 to 8 hours and then washed free of it by centrifugation and washing in sterile water. This was followed by treatment with antibiotic as in steps b to d.
(§2) In the next step of elucidation of the enhancer action, the applicants experimented with the killing activities of different antibiotics against the bacteria singly and in combination with the test component (cow urine distillate) following the method described above. These experiments are being described in the following examples. […] In all the experiments the cow urine distillate concentration was kept at 1 µl/ml, unless it is specifically mentioned.

[5] = test system: Escherichia coli; assay: as above; assay type: cell-based; conditions: for Fold enhancement in antibiotic activity: cow urine distillate 1 µl/ml
Experimental: as §1, §2

[6] = test system: Mycobacterium smegmatis; assay: as above; assay type: cell-based; conditions: for Fold enhancement in antibiotic activity: cow urine distillate 1 µl/ml
Experimental: as §1, §2

[7] = test system: MCF-7; assay: Bio-enhancement of anti-cancer agents, viable cell count; assay type: cell-based; conditions: distillate at 1 µl/ml
Experimental: • a) MCF-7 (Breast cancer commercial cell line obtained from National Center for Cell Sciences (NCCS), Pune) is inoculated at a density of about 0.1 X 10^6 cells in MEM medium in the wells of 24 well plate. • b) This is replaced with fresh medium after 18 hours in each well. • c) The test component (s) is added at desired concentrations in different wells just after the medium replacement. • d) Observations are recorded on the cell count after 36 hours for which the allowing steps are required. • i. The medium is removed from the wells. • ii. The wells are rinsed with 1ml PBS (Phosphate buffer saline). • iii. To each well 500 µl of freshly prepared trypsin (0.1% in PBS) solution is added. • iv. Trypsin solution is removed after 30 seconds and the plate is gently tapped till the cells are released from the plate surface. • v. Fresh 1 ml of MEM growth medium is added and agitated with a pipette to obtain a cell suspension. • vi. 10 µl of cell suspension is taken on the haemocytometer and a cover glass is placed over the counting chamber. • vii. The number of viable cells is counted in 5 big squares and the readings are taken from 5 microscopic fields to determine the average. • viii. The cell count (titer per ml) in the original sample is then calculated as average count X 10^3.

[8] = antibiotic 0.05 µg/ml + cow urine distillate 1 µl/ml
[9] = antibiotic 0.1 µg/ml + cow urine distillate 1 µl/ml
[10] = antibiotic 0.5 µg/ml + cow urine distillate 1 µl/ml

Structure (SMILES): Clc1ccccc1C(c1ccccc1)(c1ccccc1)n1ccnc1 [Clotrimazol]
Fold enhancement [1]: 0.0
Minimum inhibitory Concentration (MIC) [1]: 4.40 µg/mL

Structure (SMILES): OO [Hydrogen peroxide (H2O2), Hydrogen peroxide]
Viable cell count ([2]; 0.003 %v/v): 7.14 x10^7
Viable cell count ([2]; 0.003 %v/v + cow urine distillate 0.001 µl/ml): 1.2 x10^7
Fold enhancement in isoniazid/H2O2 activity ([2]; 0.003 %v/v): 5.9

OD measured as Absorbance (specific to the compound maxima) across the membrane in receiving tube after 1 hr ([3]; A340): 0.0097
OD measured as Absorbance (specific to the compound maxima) across the membrane in receiving tube after 2 hr ([3]; A340): 0.0214
OD measured as Absorbance (specific to the compound maxima) across the membrane in receiving tube after 3 hr ([3]; A340): 0.0334
OD measured as Absorbance (specific to the compound maxima) across the membrane in receiving tube after 4hr ([3]; A340): 0.0771
OD measured as Absorbance (specific to the compound maxima) across the membrane in receiving tube after 5 hr ([3]; A340): 0.0858
OD measured as Absorbance (specific to the compound maxima) across the membrane in receiving tube after 6 hr ([3]; A340): 0.0910
OD measured as Absorbance (specific to the compound maxima) across the membrane in receiving tube after 1 hr ([3]; A475): 0.0177
OD measured as Absorbance (specific to the compound maxima) across the membrane in receiving tube after 2 hr ([3]; A475): 0.0284
OD measured as Absorbance (specific to the compound maxima) across the membrane in receiving tube after 3 hr ([3]; A475): 0.0309
OD measured as Absorbance (specific to the compound maxima) across the membrane in receiving tube after 4hr ([3]; A475): 0.0412
OD measured as Absorbance (specific to the compound maxima) across the membrane in receiving tube after 5 hr ([3]; A475): 0.0484
OD measured as Absorbance (specific to the compound maxima) across the membrane in receiving tube after 6 hr ([3]; A475): 0.0496
enhancement of bioavailability across the mammalian gut membrane ([3]; with the sample, goat intestine, within 2 hours, keeps increasing upto 4 hours): enhancement of bioavailability
Structure (SMILES): CO[C@H]1/C=C/O[C@@]2(C)Oc3c(C)c(O)c4c(O)c(c(/C=N/N5CCN(C)CC5)c(O)c4c3C2=O)NC(=O)/C(C)=C\C=C\[C@H](C)[C@H](O)[C@@H](C)[C@@H](O)[C@@H](C)[C@H](OC(C)=O)[C@@H]1C [Rifampicin]
Survival fraction of viable cells upon treatment with antibiotic alone ([4]; antibiotic 0.005 µg/ml): 1.1
Survival fraction of viable cells upon treatment with antibiotic + cow urine distillate combination ([4]; antibiotic 0.005 µg/ml + cow urine distillate 1 µl/ml): 0.28
Fold enhancement in antibiotic activity ([4]; antibiotic 0.005 µg/ml): 5.5
Survival fraction of viable cells upon treatment with antibiotic alone ([4]; antibiotic 0.05 µg/ml): 0.03
Survival fraction of viable cells upon treatment with antibiotic + cow urine distillate combination [4, 8]: 0.01
Fold enhancement in antibiotic activity ([4]; antibiotic 0.05 µg/ml): 3.0
Survival fraction of viable cells upon treatment with antibiotic alone ([5]; antibiotic 10 µg/ml): 0.86
Survival fraction of viable cells upon treatment with amlibiotic + cow urine distillate combination ([5]; antibiotic 10 µg/ml + cow urine distillate 1 µl/ml): 0.17
Fold enhancement in antibiotic activity ([5]; antibiotic 10 µg/ml): 5.0
Survival fraction of viable cells upon treatment with antibiotic alone ([5]; antibiotic 30 µg/ml): 0.05
Survival fraction of viable cells upon treatment with amlibiotic + cow urine distillate combination ([5]; antibiotic 30 µg/ml + cow urine distillate 1 µl/ml): 0.007
Fold enhancement in antibiotic activity ([5]; antibiotic 30 µg/ml): 7.1
Survival fraction of viable cells upon treatment with antibiotic alone ([6]; antibiotic 0.05 µg/ml): 0.008
Survival fraction of viable cells upon treatment with antibiotic + cow urine distillate combination [6, 8]: 0.0001
Fold enhancement in antibiotic activity ([6]; antibiotic 0.05 µg/ml): 80
Survival fraction of viable cells upon treatment with antibiotic alone ([6]; antibiotic 0.1 µg/ml): 0.006
Survival fraction of viable cells upon treatment with antibiotic + cow urine distillate combination [6, 9]: 0.0036
Fold enhancement in antibiotic activity ([6]; antibiotic 0.1 µg/ml): 1.5

Structure (SMILES): CC1(C)S[C@@H]2[C@H](NC(=O)[C@H](N)c3ccccc3)C(=O)N2[C@H]1C(=O)O [Ampicillin]
Survival fraction of viable cells upon treatment with antibiotic alone ([4]; antibiotic 0.1 µg/ml): 1.00
Survival fraction of viable cells upon treatment with antibiotic + cow urine distillate combination [4, 9]: 0.3
Fold enhancement in antibiotic activity ([4]; antibiotic 0.1 µg/ml): 3.3
Survival fraction of viable cells upon treatment with antibiotic alone ([4]; antibiotic 0.5 µg/ml): 0.18
Survival fraction of viable cells upon treatment with antibiotic + cow urine distillate combination [4, 10]: 0.06
Fold enhancement in antibiotic activity ([4]; antibiotic 0.5 µg/ml): 3.0
Survival fraction of viable cells upon treatment with antibiotic alone ([5]; antibiotic 4 µg/ml): 1.11
Survival fraction of viable cells upon treatment with amlibiotic + cow urine distillate combination ([5]; antibiotic 4 µg/ml + cow urine distillate 1 µl/ml): 0.60
Fold enhancement in antibiotic activity ([5]; antibiotic 4 µg/ml): 1.85
Survival fraction of viable cells upon treatment with antibiotic alone ([5]; antibiotic 6 µg/ml): 0.09
Survival fraction of viable cells upon treatment with amlibiotic + cow urine distillate combination ([5]; antibiotic 6 µg/ml + cow urine distillate 1 µl/ml): 0.02
Fold enhancement in antibiotic activity ([5]; antibiotic 6 µg/ml): 4.50
Survival fraction of viable cells upon treatment with antibiotic alone ([5]; antibiotic 8 µg/ml): 0.05
Survival fraction of viable cells upon treatment with amlibiotic + cow urine distillate combination ([5]; antibiotic 8 µg/ml + cow urine distillate 1 µl/ml): 0.01
Fold enhancement in antibiotic activity ([5]; antibiotic 8 µg/ml): 5.00
Survival fraction of viable cells upon treatment with antibiotic alone ([6]; antibiotic 0.5 µg/ml): 0.07
Survival fraction of viable cells upon treatment with antibiotic + cow urine distillate combination [6, 10]: 0.006
Fold enhancement in antibiotic activity ([6]; antibiotic 0.5 µg/ml): 11.6

Structure (SMILES): CC(=O)O[C@H]1C(=O)[C@@]2(C)[C@H]([C@H](OC(=O)c3ccccc3)[C@]3(O)C[C@H](OC(=O)[C@H](O)[C@@H](NC(=O)c4ccccc4)c4ccccc4)C(C)=C1C3(C)C)[C@]1(OC(C)=O)CO[C@@H]1C[C@@H]2O [Taxol, Paclitaxel]
enhancement in the activity of taxol [7]: at least 5 folds

Structure (SMILES): NNC(=O)c1ccncc1 [Isoniazid]
Viable cell count ([2]; 250µg/ml): 7.5 x10^7
Viable cell count ([2]; 250µg/ml + cow urine distillate 0.001 µl/ml): 0.99 x10^7
Fold enhancement in isoniazid/H2O2 activity ([2]; 250µg/ml): 7.5
enhancement action for INH ([2]; distillate at 10-50 thousand-fold dilution in the final volume of culture, organism not stated): showed enhancement action
